In the supplement of paper PMC10307832:

Tests used:
Test in all cases: relative viability (nuclei count vs DMSO), 5 days (fraction); higher = more cells survive
UMC-11 = system: UMC-11
Procedure, shortened: (§1)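 Relative viability equals treated-well nuclei counts divided by vehicle-well nuclei counts. Counts came from 4× images of lung cancer cell lines grown in 1536-well plates for 5 days after pin-tool dosing on the day after seeding. Dosing used one drug alone or a fixed anchor-drug dose plus five library-drug doses (not always all listed) in √10 steps, and values are medians of duplicate plates.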

SW 1573 = system: SW 1573
Procedure, shortened: as §1

NCI-H2009 = system: NCI-H2009
Procedure, shortened: as §1

A-427 = system: A-427
Procedure, shortened: as §1

NCI-H1793 = system: NCI-H1793
Procedure, shortened: as §1

NCI-H1944 = system: NCI-H1944
Procedure, shortened: as §1

NCI-H1915 = system: NCI-H1915
Procedure, shortened: as §1

EPLC-272H = system: EPLC-272H
Procedure, shortened: as §1

NCI-H358 = system: NCI-H358
Procedure, shortened: as §1

ABC-1 = system: ABC-1
Procedure, shortened: as §1

NCI-H2023 = system: NCI-H2023
Procedure, shortened: as §1

HCC-15 = system: HCC-15
Procedure, shortened: as §1

RERF-LC-KJ = system: RERF-LC-KJ
Procedure, shortened: as §1

NCI-H322M = system: NCI-H322M
Procedure, shortened: as §1

NCI-H838 = system: NCI-H838
Procedure, shortened: as §1

NCI-H441 = system: NCI-H441
Procedure, shortened: as §1

NCI-H1734 = system: NCI-H1734
Procedure, shortened: as §1

NCI-H647 = system: NCI-H647
Procedure, shortened: as §1

LK-2 = system: LK-2
Procedure, shortened: as §1

LC-2-ad = system: LC-2-ad
Procedure, shortened: as §1

NCI-H2347 = system: NCI-H2347
Procedure, shortened: as §1

CN1CCN(CCOc2cc(OC3CCOCC3)c3c(Nc4c(Cl)ccc5c4OCO5)ncnc3c2)CC1 [Saracatinib] + C[C@]1(O)C[C@@H](c2nc(-c3ccc4ccc(-c5ccccc5)nc4c3)c3c(N)nccn32)C1 [Linsitinib] (partner 1 µM)
relative viability (UMC-11; first compound 0.02 µM): 1.09 | relative viability (UMC-11; first compound 0.6325 µM): 0.956 | relative viability (UMC-11; first compound 2 µM): 0.8 | relative viability (SW 1573; first compound 0.02 µM): 0.846 | relative viability (SW 1573; first compound 0.2 µM): 0.673 | relative viability (SW 1573; first compound 0.6325 µM): 0.699 | relative viability (SW 1573; first compound 2 µM): 0.64 | relative viability (NCI-H2009; first compound 0.02 µM): 1.19 | relative viability (NCI-H2009; first compound 0.2 µM): 1.04 | relative viability (NCI-H2009; first compound 0.6325 µM): 1.15 | relative viability (NCI-H2009; first compound 2 µM): 1.04 | relative viability (A-427; first compound 0.02 µM): 1.03 | relative viability (A-427; first compound 0.2 µM): 1.08 | relative viability (A-427; first compound 0.6325 µM): 1.12 | relative viability (A-427; first compound 2 µM): 1.11 | relative viability (NCI-H1793; first compound 0.02 µM): 0.876 | relative viability (NCI-H1793; first compound 0.2 µM): 0.447 | relative viability (NCI-H1793; first compound 0.6325 µM): 0.993 | relative viability (NCI-H1793; first compound 2 µM): 0.783 | relative viability (NCI-H1944; first compound 0.02 µM): 1.21 | relative viability (NCI-H1944; first compound 0.6325 µM): 0.971 | relative viability (NCI-H1944; first compound 2 µM): 0.704 | relative viability (NCI-H1915; first compound 0.02 µM): 1.1 | relative viability (NCI-H1915; first compound 0.2 µM): 1.03 | relative viability (NCI-H1915; first compound 0.6325 µM): 1.07 | relative viability (NCI-H1915; first compound 2 µM): 1.07 | relative viability (EPLC-272H; first compound 0.02 µM): 1.23 | relative viability (EPLC-272H; first compound 0.2 µM): 1.28 | relative viability (EPLC-272H; first compound 0.6325 µM): 1.12 | relative viability (EPLC-272H; first compound 2 µM): 1.07 | relative viability (NCI-H358; first compound 0.02 µM): 0.813 | relative viability (NCI-H358; first compound 0.2 µM): 0.51 | relative viability (NCI-H358; first compound 0.6325 µM): 0.403 | relative viability (NCI-H358; first compound 2 µM): 0.279 | relative viability (ABC-1; first compound 0.02 µM): 0.61 | relative viability (ABC-1; first compound 0.2 µM): 0.902 | relative viability (ABC-1; first compound 0.6325 µM): 0.677 | relative viability (ABC-1; first compound 2 µM): 0.753 | relative viability (NCI-H2023; first compound 0.02 µM): 0.771 | relative viability (NCI-H2023; first compound 0.2 µM): 0.588 | relative viability (NCI-H2023; first compound 0.6325 µM): 0.542 | relative viability (NCI-H2023; first compound 2 µM): 0.366 | relative viability (HCC-15; first compound 0.02 µM): 0.911 | relative viability (HCC-15; first compound 0.2 µM): 0.84 | relative viability (HCC-15; first compound 0.6325 µM): 0.86 | relative viability (HCC-15; first compound 2 µM): 0.726 | relative viability (RERF-LC-KJ; first compound 0.02 µM): 0.938 | relative viability (RERF-LC-KJ; first compound 0.2 µM): 0.83 | relative viability (RERF-LC-KJ; first compound 0.6325 µM): 0.883 | relative viability (RERF-LC-KJ; first compound 2 µM): 0.813 | relative viability (NCI-H322M; first compound 0.02 µM): 0.999 | relative viability (NCI-H322M; first compound 0.2 µM): 0.962 | relative viability (NCI-H322M; first compound 0.6325 µM): 0.924 | relative viability (NCI-H322M; first compound 2 µM): 0.569 | relative viability (NCI-H838; first compound 0.02 µM): 0.997 | relative viability (NCI-H838; first compound 0.2 µM): 0.871 | relative viability (NCI-H838; first compound 0.6325 µM): 0.749 | relative viability (NCI-H838; first compound 2 µM): 0.838 | relative viability (NCI-H441; first compound 0.02 µM): 0.508 | relative viability (NCI-H441; first compound 0.2 µM): 0.515 | relative viability (NCI-H441; first compound 0.6325 µM): 0.682 | relative viability (NCI-H441; first compound 2 µM): 0.604 | relative viability (NCI-H1734; first compound 0.02 µM): 0.908 | relative viability (NCI-H1734; first compound 0.6325 µM): 0.713 | relative viability (NCI-H1734; first compound 2 µM): 0.751 | relative viability (NCI-H647; first compound 0.02 µM): 1.05 | relative viability (NCI-H647; first compound 0.2 µM): 0.943 | relative viability (NCI-H647; first compound 0.6325 µM): 1.14 | relative viability (NCI-H647; first compound 2 µM): 0.514 | relative viability (LK-2; first compound 0.02 µM): 0.52 | relative viability (LK-2; first compound 0.2 µM): 0.484 | relative viability (LK-2; first compound 0.6325 µM): 0.375 | relative viability (LK-2; first compound 2 µM): 0.3 | relative viability (LC-2-ad; first compound 0.02 µM): 0.971 | relative viability (LC-2-ad; first compound 0.6325 µM): 0.689 | relative viability (LC-2-ad; first compound 2 µM): 0.541 | relative viability (NCI-H2347; first compound 0.02 µM): 0.916 | relative viability (NCI-H2347; first compound 0.2 µM): 0.902 | relative viability (NCI-H2347; first compound 0.6325 µM): 1.13 | relative viability (NCI-H2347; first compound 2 µM): 0.936
